According to US9334279B2, “Hepatitis C virus inhibitors” (BRISTOL-MYERS SQUIBB COMPANY, priority 2012, dated 2016):
Like-named read-outs stand apart in the source and are kept apart here.

How the values were obtained:
[1] = rcm bond, 15-membered ring, Hoveyda-Grubbs II
HCV GT1b(Con1) replicon = assay: HCV replicon luciferase reporter assay, genotype 1b; type: cell-based, HCV genotype 1b; conditions: Hepatitis C virus, 72 h, HUH-7 cells, Renilla luciferase, 3 days incubation, read-out: LE_1b (EC50, range)
Outline: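 HUH-7 cells stably carrying a Con1 GT1b replicon with Renilla luciferase and Ser1179Ile adaptive mutation; 3.0×10^3 cells/well, DMEM 4% FCS, 0.5% DMSO, twenty-point 3-fold titration, 3 days 37 °C. Luminescence 2 h after 7.5 μM EnduRen; EC50 by four-parameter logistic fit. CC50 from multiplexed Cell Titer-Blue fluorescence (8 h).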

HCV GT1a(H77) replicon = assay: HCV replicon luciferase reporter assay, genotype 1a; type: cell-based, HCV genotype 1a; conditions: Hepatitis C virus, 72 h, HUH-7 cells, Renilla luciferase, 3 days incubation, read-out: LE_1a (EC50, range)
Outline: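 Huh-7 cells stably carried a GT1a(H77) Renilla luciferase replicon with NS3 P1496L and NS5A S2204I adaptive mutations. Luminescence was read after 2 h with 7.5 μM EnduRen, and EC50 came from a four-parameter logistic fit; CC50 came from multiplexed Cell Titer-Blue (8 h).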

SMILES	ring closure, isolated yield ([1]; from C=CCCC(C)C[C@@H](C)[C@H](NC(=O)OC(C)(C)C)C(=O)N1C[C@H](O)C[C@H]1C(=O)N[C@]1(C(=O)NS(=O)(=O)C2(C)CC2)C[C@H]1C=C, 1,2-dichloroethane, 8.8 mM, 80.0 °C, 2.0 h) [%]	ring closure, isolated yield ([1]; from C=CCCC(C)C[C@@H](CC)[C@H](NC(=O)OC(C)(C)C)C(=O)N1C[C@@H](O)CC1C(=O)N[C@]1(C(=O)NS(=O)(=O)C2CC2)C[C@H]1C=C, dichloroethane, 26.6 mM, 95.0 °C, 16.0 h) [%]	EC50 (HCV GT1b(Con1) replicon) [nM]	EC50 (HCV GT1a(H77) replicon) [nM]
CC1CC/C=C\[C@@H]2C[C@@]2(C(=O)NS(=O)(=O)C2(C)CC2)NC(=O)[C@@H]2C[C@@H](O)CN2C(=O)[C@@H](NC(=O)OC(C)(C)C)[C@H](C)C1 (stereo partly drawn)	70	–	–	–
CC[C@@H]1CC(C)CC/C=C\[C@@H]2C[C@@]2(C(=O)NS(=O)(=O)C2CC2)NC(=O)[C@@H]2C[C@@H](O)CN2C(=O)[C@H]1NC(=O)OC(C)(C)C (stereo partly drawn)	–	47	–	–
CC(C)Oc1ccc(-c2cc(O[C@@H]3C[C@H]4C(=O)N[C@]5(C(=O)NS(=O)(=O)C6(C)CC6)C[C@H]5/C=C\CC[C@H](C)C[C@@H](C)[C@H](NC(=O)OC(C)(C)C(F)(F)F)C(=O)N4C3)cc(-n3cccn3)n2)cc1 [Compound 1014, 1,1,1-trifluoro-2-methylpropan-2-yl ((2R,6S,7R,9S,13aS,14aR,16aS,Z)-2-((2-(4-isopropoxyphenyl)-6-(1H-pyrazol-1-yl)pyridin-4-yl)oxy)-7,9-dimethyl-14a-(((1-methylcyclopropyl)sulfonyl)carbamoyl)-5,16-dioxo-1,2,3,5,6,7,8,9,10,11,13a,14,14a,15,16,16a-hexadecahydrocyclopropa[e]pyrrolo[1,2-a][1,4]diazacyclopentadecin-6-yl)carbamate]	–	–	5.01 to 35	35 to 359
CC(C)Oc1ccc(-c2cc(Cl)cc(O[C@@H]3C[C@H]4C(=O)N[C@]5(C(=O)NS(=O)(=O)C6(C)CC6)C[C@H]5/C=C\CC[C@@H](C)C[C@@H](C)[C@H](NC(=O)OC(C)(C)C)C(=O)N4C3)n2)cc1 [Compound 1029, tert-butyl ((2R,6S,7R,9R,13aS,14aR,16aS,Z)-2-((4-chloro-6-(4-isopropoxyphenyl)pyridin-2-yl)oxy)-7,9-dimethyl-14a-(((1-methylcyclopropyl)sulfonyl)carbamoyl)-5,16-dioxo-1,2,3,5,6,7,8,9,10,11,13a,14,14a,15,16,16a-hexadecahydrocyclopropa[e]pyrrolo[1,2-a][1,4]diazacyclopentadecin-6-yl)carbamate]	–	–	1.01 to 5	1.01 to 5
